Calls of active or inactive are those of the source. The rule behind the calls is not given here.
Experiments:
[1] = target: T1, Human immunodeficiency virus type 1 reverse transcriptase (Human immunodeficiency virus 1, UniProt Q72547); assay: Inhibition of RNase H activity of recombinant His-tagged HIV-1 group M subtype B reverse transcriptase p66/p51 expressed in Escherichia coli M15 using 18-nucleotide 3'-fluorescein-labeled RNA/5'-dabcyl-labeled DNA hybrid as substrate incubated for 1 hr; design: species or system HIV-1 M:B
[2] = tested on: Human immunodeficiency virus 1; assay: Antiviral activity against HIV1 infected in human HeLa-CD4-LTR-betagal cells assessed as inhibition of viral replication measured after 24 hrs by fluorescence based analysis; assay type: functional, organism-based; conditions: Human immunodeficiency virus 1, 24 h
[3] = tested on: Human immunodeficiency virus 1; assay: Selectivity index, ratio of IC50 for wild type HIV1 subtype B NL4-3 6xHis-tagged integrase expressed in Escherichia coli BL21 (DE3) using DNA as substrate preincubated with enzyme for 1 hr followed by addition of recombinant 6xHis-tagged LEDGF/p75 expressed in Escherichia coli BL21 (DE3), DNA donor …
HIV-1 M:B [4] = assay: Selectivity index, ratio of IC50 for recombinat HIV-1 group M subtype B His-tagged reverse transcriptase p66 N474A mutant expressed in Escherichia coli M15 to IC50 for RNase H activity of recombinant His-tagged HIV-1 group M subtype B reverse transcriptase p66/p51 expressed in Escherichia coli M15 …
HIV-1 M:B [5] = assay: Selectivity index, ratio of IC50 for recombinat HIV-1 group M subtype B His-tagged reverse transcriptase p66 Q475A mutant expressed in Escherichia coli M15 to IC50 for RNase H activity of recombinant His-tagged HIV-1 group M subtype B reverse transcriptase p66/p51 expressed in Escherichia coli M15 …
HIV-1 M:B [6] = assay: Selectivity index, ratio of IC50 for recombinat HIV-1 group M subtype B His-tagged reverse transcriptase p66 Y501A mutant expressed in Escherichia coli M15 to IC50 for RNase H activity of recombinant His-tagged HIV-1 group M subtype B reverse transcriptase p66/p51 expressed in Escherichia coli M15 …
HIV-1 M:B [7] = assay: Selectivity index, ratio of IC50 for recombinat HIV-1 group M subtype B His-tagged reverse transcriptase p66 W535A mutant expressed in Escherichia coli M15 to IC50 for RNase H activity of recombinant His-tagged HIV-1 group M subtype B reverse transcriptase p66/p51 expressed in Escherichia coli M15 …
[8] = tested on: Human immunodeficiency virus type 1 reverse transcriptase (Human immunodeficiency virus 1), Q72547 [K540A]; assay: Inhibition of recombinat HIV-1 group M subtype B His-tagged reverse transcriptase p66 K540A mutant expressed in Escherichia coli M15; conditions: HIV-1 M:B
[9] = tested on: Human immunodeficiency virus type 1 reverse transcriptase (Human immunodeficiency virus 1), Q72547 [R448A]; assay: Inhibition of recombinat HIV-1 group M subtype B His-tagged reverse transcriptase p66 R448A mutant expressed in Escherichia coli M15; conditions: HIV-1 M:B
[10] = tested on: Human immunodeficiency virus type 1 reverse transcriptase (Human immunodeficiency virus 1), Q72547 [K451A]; assay: Inhibition of recombinat HIV-1 group M subtype B His-tagged reverse transcriptase p66 K451A mutant expressed in Escherichia coli M15; conditions: HIV-1 M:B
[11] = Stability of compound in 90% human serum at 5 mM and 37 degree C measured after 3 hrs by ESI-RP-HPLC analysis; assay type: ADME, cell-free; conditions: 5000 µM
[12] = Drug metabolism in 90% human serum assessed as retro-Claisen adduct derived 1-(1-(4-fluorobenzyl)-4-phenyl-1H-pyrrol-3-yl)ethanone metabolite formation at 5 mM and 37 degree C measured after 3 hrs by ESI-RP-HPLC analysis; assay type: ADME, cell-free; conditions: 5000 µM
[13] = target: T1, Human immunodeficiency virus type 1 reverse transcriptase; assay: Inhibition of RNase H activity of recombinant HIV-1 reverse transcriptase p66/p51 expressed in Escherichia coli M15 using 5'-[gamma32P]ATP-labeled-tC5U RNA oligonucleotide/p12 DNA oligonucleotide hybrid as substrate incubated for 30 mins
[14] = target: Human immunodeficiency virus type 1 integrase (Human immunodeficiency virus 1, UniProt Q7ZJM1); assay: Inhibition of wild type HIV1 subtype B NL4-3 6xHis-tagged integrase expressed in Escherichia coli BL21 (DE3) assessed as inhibition of 3'-processing and strand-transfer reactions using DNA as substrate preincubated with enzyme for 1 hr followed by addition of recombinant 6xHis-tagged LEDGF/p75 expressed in Escherichia coli BL21 (DE3), DNA donor substrate and DNA acceptor substrate and further …
[15] = Cytotoxicity against human HeLa cells expressing CD4-LTR-beta-gal assessed as reduction in cell viability measured after 24 hrs by CellTiter96 AQueous one solution cell proliferation assay; assay type: cell-based
[16] = Selectivity index, ratio of CC50 for human HeLa cells expressing CD4-LTR-beta-gal assessed as reduction in cell viability measured after 24 hrs by CellTiter96 AQueous one solution cell proliferation assay to EC50 for HIV1 infected in human HeLa-CD4-LTR-betagal cells measured after 24 hrs by fluorescence based analysis; assay type: toxicity; conditions: read-out: Ratio CC50/EC50

Human immunodeficiency virus type 1 integrase, sequence (Q7ZJM1 whole entry): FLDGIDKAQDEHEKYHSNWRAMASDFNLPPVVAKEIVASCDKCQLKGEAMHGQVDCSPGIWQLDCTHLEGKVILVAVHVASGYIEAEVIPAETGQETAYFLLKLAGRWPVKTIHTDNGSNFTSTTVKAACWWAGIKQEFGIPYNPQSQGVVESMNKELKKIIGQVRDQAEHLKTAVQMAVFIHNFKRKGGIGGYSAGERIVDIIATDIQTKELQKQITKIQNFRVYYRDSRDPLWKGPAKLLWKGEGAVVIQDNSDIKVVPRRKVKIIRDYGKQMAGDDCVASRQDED

Compound `CCOC(=O)c1cc(-c2ccccc2)[nH]n1` has an IC50 [1] of over 100 µM.
Work on `CCOC(=O)c1cc(-c2cn(Cc3ccc(F)cc3)cc2-c2ccc(OCC(=O)Nc3ccc(C(=O)O)cc3)cc2)n[nH]1` yielded an IC50 [1] of 8.1 µM.
`O=C(O)c1cc(-c2cn(Cc3ccc(F)cc3)cc2-c2ccc(OCCCCCc3ccccc3)cc2)n[nH]1` showed an IC50 [1] of 9.2 µM.
For `O=C(O)c1cc(-c2cn(Cc3cccc4ccccc34)cc2-c2ccc(OCCCCc3ccccc3)cc2)n[nH]1`, the IC50 [1] was 2.38 µM.
For `Cn1cc(-c2ccccc2)c(-c2cc(C(=O)O)[nH]n2)c1`, the IC50 [1] was over 100 µM.
`CCOC(=O)c1cc(-c2cn(Cc3ccc(F)cc3)cc2-c2ccc(OCc3ccccc3)cc2)n[nH]1` gave an IC50 [1] of 5.4 µM, an EC50 [2] of 4 to 41 µM and a Ratio IC50 [3] of over 18.5. For the same compound, the Ratio IC50 (HIV-1 M:B [4]) was over 5, the Ratio IC50 (HIV-1 M:B [5]) was over 5 and the Ratio IC50 (HIV-1 M:B [6]) was over 5. For the same compound, the Ratio IC50 (HIV-1 M:B [7]) was over 5, the inhibition [8] was “inactive” and the inhibition [9] was “inactive”. The inhibition [10] was “inactive”.
Work on `O=C(O)c1cc(-c2cn(Cc3ccc(F)cc3)cc2-c2ccc(OCCCCc3ccccc3)cc2)n[nH]1` yielded an IC50 [1] of 0.27 µM.
Compound `O=C(O)c1cc(-c2cn(Cc3ccc(F)cc3)cc2-c2ccc3ccccc3c2)n[nH]1` has an IC50 [1] of 13.7 µM.
For `O=C(O)c1cc(-c2cn(Cc3ccc(F)cc3)cc2-c2ccccc2)n[nH]1`, the IC50 [1] was 75 µM and the Stability [11] was “Stable”.
Work on `O=C(COc1ccc(-c2cn(Cc3cccc4ccccc34)cc2-c2cc(C(=O)O)[nH]n2)cc1)Nc1ccccc1` yielded an IC50 [1] of 5.8 µM.
For `O=C(O)c1cc(-c2cn(Cc3cccc4ccccc34)cc2-c2ccccc2)n[nH]1`, the IC50 [1] was 25.3 µM.
In the case of `O=C(COc1ccc(-c2cn(Cc3ccc(F)cc3)cc2-c2cc(C(=O)O)[nH]n2)cc1)Nc1ccccc1`, the IC50 [1] is reported as 23 µM.
With `O=C(O)c1cc(-c2cn(Cc3ccc(F)cc3)cc2-c2ccc(OCc3cccc4ccccc34)cc2)n[nH]1` the IC50 [1] was 4.5 µM.
Compound `CCOC(=O)c1cc(-c2cn(C)cc2-c2ccccc2)n[nH]1` has an IC50 [1] of over 100 µM.
In the case of `O=C(O)c1cc(-c2ccccc2)n[nH]1`, the IC50 [1] is reported as over 100 µM.
In the case of `CCOC(=O)/C(O)=C/C(=O)c1cn(Cc2ccc(F)cc2)cc1-c1ccccc1`, the Drug metabolism [12] is reported as “Metabolite_Detected” and the Stability [11] is reported as “Unstable”.
Compound `CCOC(=O)c1cc(-c2cn(Cc3cccc4ccccc34)cc2-c2ccc(OCCCCc3ccccc3)cc2)n[nH]1` has an IC50 [1] of 8.5 µM.
`CCOC(=O)/C(O)=C/C(=O)/C=C/c1cccn1Cc1ccccc1Cl` showed a Ratio IC50 (HIV-1 M:B [4]) of over 5, a Ratio IC50 (HIV-1 M:B [5]) of over 5 and a Ratio IC50 (HIV-1 M:B [6]) of over 5. The Ratio IC50 (HIV-1 M:B [7]) was over 5, the inhibition [8] was “Active” and the IC50 [13] was 7.3 µM.
`O=C(O)c1cc(-c2ccn(Cc3ccc(F)cc3)c2)n[nH]1` gave an IC50 [1] of over 100 µM.
Compound `CCOC(=O)c1cc(C)n[nH]1` has an IC50 [1] of over 100 µM.
For `CCOC(=O)c1cc(-c2cn(Cc3cccc4ccccc34)cc2-c2ccccc2)n[nH]1`, the IC50 [1] was 9.4 µM.
In the case of `O=C(O)c1cc(-c2ccccc2-c2ccccc2)n[nH]1`, the IC50 [1] is reported as over 100 µM.
Work on `CCOC(=O)c1cc(-c2ccn(Cc3ccc(F)cc3)c2)n[nH]1` yielded an IC50 [1] of over 100 µM.
In the case of `Cc1cc(C(=O)O)n[nH]1`, the IC50 [1] is reported as over 100 µM.
For `O=C(O)c1cc(-c2cn(Cc3ccc(F)cc3)cc2-c2ccc(OCc3ccccc3)cc2)n[nH]1`, the IC50 [1] was 3.21 µM.
`CCOC(=O)c1cc(-c2cn(Cc3ccc(F)cc3)cc2-c2ccc(OCc3cccc4ccccc34)cc2)n[nH]1` gave an IC50 [1] of 5.5 µM.
Work on `CCOC(=O)c1cc(-c2cn(Cc3ccc(F)cc3)cc2-c2ccccc2)n[nH]1` yielded an IC50 [1] of 14.3 µM, an EC50 [2] of 4 µM and an IC50 [14] of 75 µM. The Ratio IC50 [3] was 5, the Ratio IC50 (HIV-1 M:B [4]) was over 5 and the Ratio IC50 (HIV-1 M:B [5]) was over 5. The Ratio IC50 (HIV-1 M:B [6]) was over 5, the Ratio IC50 (HIV-1 M:B [7]) was over 5 and the inhibition [8] was “inactive”. The inhibition [9] was “inactive”, the inhibition [10] was “Active” and the Stability [11] was “Stable”.
For `CCOC(=O)c1cc(-c2cn(Cc3cccc4ccccc34)cc2-c2ccc(OCC(=O)Nc3ccccc3)cc2)n[nH]1`, the IC50 [1] was 7.9 µM.
For `CCOC(=O)c1cc(-c2ccccc2-c2ccccc2)n[nH]1`, the IC50 [1] was over 100 µM.
For `CCOC(=O)c1cc(-c2cn(Cc3ccc(F)cc3)cc2-c2ccc3ccccc3c2)n[nH]1`, the IC50 [1] was 9.4 µM, the EC50 [2] was 4 to 41 µM and the CC50 at 24 h [15] was over 200 µM. It also gave a Ratio IC50 [3] of over 10.6, a selectivity ratio at 24 h [16] of over 10 and a Ratio IC50 (HIV-1 M:B [4]) of over 5. The Ratio IC50 (HIV-1 M:B [5]) was over 5, the Ratio IC50 (HIV-1 M:B [6]) was over 5 and the Ratio IC50 (HIV-1 M:B [7]) was over 5. The inhibition [8] was “inactive”, the inhibition [9] was “inactive” and the inhibition [10] was “inactive”.
In the case of `CCOC(=O)c1cc(-c2cn(Cc3cccc4ccccc34)cc2-c2ccc(OCc3cccc4ccccc34)cc2)n[nH]1`, the IC50 [1] is reported as 4.15 µM.
With `O=C(O)c1cc(-c2cn(Cc3cccc4ccccc34)cc2-c2ccc(OCc3cccc4ccccc34)cc2)n[nH]1` the IC50 [1] was 1.73 µM.
Compound `CCOC(=O)c1cc(-c2cn(CCCCc3ccccc3)cc2-c2ccccc2)n[nH]1` has an IC50 [1] of 97 µM.
Compound `O=C(O)c1cc(-c2c[nH]cc2-c2ccccc2)n[nH]1` has an IC50 [1] of over 100 µM.
With `O=C(O)/C(O)=C/C(=O)c1cn(Cc2ccc(F)cc2)cc1-c1ccccc1` the Drug metabolism [12] was “Metabolite_Detected” and the Stability [11] was “Unstable”.
`O=C(O)c1cc(-c2cc[nH]c2)n[nH]1` showed an IC50 [1] of over 100 µM.
Compound `CCOC(=O)c1cc(-c2cn(Cc3ccc(F)cc3)cc2-c2ccc(OCCCCCc3ccccc3)cc2)n[nH]1` has an IC50 [1] of 25.8 µM.
Compound `CCOC(=O)c1cc(-c2c[nH]cc2-c2ccccc2)n[nH]1` has an IC50 [1] of over 100 µM.
For `O=C(COc1ccc(-c2cn(Cc3ccc(F)cc3)cc2-c2cc(C(=O)O)[nH]n2)cc1)Nc1ccc(C(=O)O)cc1`, the IC50 [1] was 70 µM.
`CCOC(=O)c1cc(-c2cn(Cc3ccc(F)cc3)cc2-c2ccc(OCC(=O)Nc3ccccc3)cc2)n[nH]1` gave an IC50 [1] of 6.8 µM.
Compound `CCOC(=O)c1cc(-c2cc[nH]c2)n[nH]1` has an IC50 [1] of over 100 µM.
With `O=C(O)c1cc(-c2cn(CCCCc3ccccc3)cc2-c2ccccc2)n[nH]1` the IC50 [1] was 63 µM.
`CCOC(=O)c1cc(-c2cn(Cc3ccc(F)cc3)cc2-c2ccc(OCCCCc3ccccc3)cc2)n[nH]1` gave an IC50 [1] of 17.8 µM, an EC50 [2] of 4 to 41 µM and a CC50 at 24 h [15] of over 200 µM. The Ratio IC50 [3] was over 5.6, the selectivity ratio at 24 h [16] was over 10 and the Ratio IC50 (HIV-1 M:B [4]) was over 5. The Ratio IC50 (HIV-1 M:B [5]) was over 5, the Ratio IC50 (HIV-1 M:B [6]) was over 5 and the Ratio IC50 (HIV-1 M:B [7]) was over 5. The inhibition [8] was “inactive”, the inhibition [9] was “inactive” and the inhibition [10] was “inactive”.

— ChEMBL document CHEMBL4613295, “Pyrrolyl Pyrazoles as Non-Diketo Acid Inhibitors of the HIV-1 Ribonuclease H Function of Reverse Transcriptase” (ACS Med Chem Lett, 2020)
